Experimental data as given in patent publication US10022366B2, “Extending and maintaining micropore viability of microneedle treated skin with lipid biosynthesis inhibitors for sustained drug delivery” (University of Maryland, Baltimore, priority 2013, dated 2018).
Where a name gives a salt, the structure may show the parent alone.

What was measured:
[1] = Irritation in the MN-treated animal models (data not shown); type: in vivo; conditions: FLU deposition vehicle on MN-treated animal models
Procedure: (§1) In order to optimize FLU skin concentration and NTX flux, in certain embodiments, four different methods were chosen for FLU deposition. […] Ethanol (200 proof) was chosen for in vivo studies because it is a frequently used topical excipient and most of the 40 μl ethanol used was allowed to evaporate before application of the drug gel. […] The other two formulations tested contained either 70% or 25% PG. […] See Ghosh P. et al., 2013. Development of a codrug approach for sustained delivery across MN treated skin. […] See Milewski M., Stinchcomb A 2011. Vehicle Composition Influence on the MN-Enhanced Transdermal Flux of Naltrexone Hydrochloride. Pharmaceutical Research 28: 124-134. The formulations also contained large amounts of ethanol, a known permeation enhancer, and evaporation of the ethanol from these was not as efficient due to the presence of PG. Solubility of FLU was not an issue with any of the formulations. Therefore, in a preferred embodiment, 40 μl of 1.5% FLU in 200 proof ethanol was chosen as the vehicle for FLU deposition. Ethanol is a well-known chemical enhancer used in the topical/transdermal industry. It acts by replacing the water molecules in the lipid polar head groups as well as the protein regions of the SC, thus enhancing free volume and permeability of molecules across the skin. See Feingold K R 2009. The outer frontier: the importance of lipid metabolism in the skin. […]

[2] = In vitro diffusion studies across MN treated skin (NTX flux, NTX and FLU skin concentration); type: in vitro ADME, Yucatan miniature pig; conditions: p>0.05
Excerpt: NTX and FLU were quantified using high pressure liquid chromatography (HPLC). The HPLC system consisted of a Waters 717 plus auto-sampler, a Waters 600 quaternary pump, and a Waters 2487 dual wavelength absorbance detector with Waters Empower™ software. A Perkin Elmer Brownlee™ Spheri 5 VL C18 column (5μ, 220×4.6 mm) and a C18 guard column (15×3.2 mm) were used with the UV detector set at a wavelength of 280 nm for NTX and 305 nm for FLU. The mobile phase consisted of 65:35 (v/v) ACN: (0.1% TFA with 0.065% 1-octane sulfonic acid sodium salt, adjusted to pH 3.0 with TEA aqueous phase). Samples were run at a flow rate of 1.5 ml/min. The injection volume used was […] for all samples.
In vitro studies were performed to look at the flux across MN treated skin and the skin concentrations of NTX and FLU in the skin. Full-thickness Yucatan miniature pig skin was used for all in vitro experiments. All pig tissue harvesting experiments were done under IACUC approved protocols at the University of Kentucky. Fresh skin was cleaned to remove excess subcutaneous fat, dermatomed and stored at −20° C. Skin was thawed and cut into small square pieces on the day of the diffusion experiment. The thickness was measured for each individual piece of skin and the average thickness of all treatment groups was maintained between 1.4-1.8 mm. Skin was next treated with a 5 MN in-plane array, 10 times in one direction and 10 times in a mutually perpendicular direction to generate a total of 100 MN insertions within the active treatment area of 0.95 cm^2. Five treatment groups were used based on the 4 different vehicles used for FLU and a control for NTX only; all studies were done in triplicate. […] All samples were analyzed using HPLC. The steady state flux of NTX was calculated using the steady state portion of the cumulative amount permeated vs. time plot. The skin concentrations of both drugs were also determined at the end of the study by extracting the drug overnight into 10 mL of ACN, and injecting the extracted sample onto the HPLC column after appropriate dilutions. […]

[3] = Skin irritation by colorimetry (change in erythema, Δa*); type: in vivo, hairless guinea pigs (HGP); conditions: immediately following treatment or following removal of the patches at 7 days; among treatment groups; p>0.05
Procedure: Local skin irritation can be one of the major drawbacks of topical/transdermal delivery, so irritation studies were conducted to look at the effect of local FLU treatment of the skin in HGP. The studies were conducted using the same treatment groups as the recovery studies. Colorimeter (Chroma Meter CR-400, Konica, Minolta, Japan) readings were obtained, in triplicate, at each site before and immediately after the treatment. The data were used to record changes in the color of the skin from baseline based on 3 different color axes, the red-green axis (a*), the black-white axis (L*) and the yellow-blue axis (b*). […] The degree of redness of the skin or the change in erythema of the skin was measured by the change in the red green axis (Δa*) values. Skin irritation studies were conducted in triplicate.

[4] = Reversibility/recovery of pores by transepidermal water loss (TEWL); type: in vivo, hairless guinea pigs (HGP); conditions: after removal of occlusion at 7 days; compared among the 5 treatment sites; p>0.05
Excerpt: The reversibility/recovery of the pores following removal of occlusion was studied using transepidermal water loss (TEWL) in a HGP model. Five different sites were chosen on the dorsal region of an animal. […] All sites were marked and cleaned on the day of the treatment. […] The concentration and amount of NTX gel and FLU were consistent with the PK studies. A placebo gel was used for site 3 and site 4. The placebo gel was similar in composition to the NTX gel with 10% PG, 1% benzyl alcohol and 3% HEC as the gelling agent. […] All sites were occluded using a transdermal patch (148) secured in place with Bioclusive™ tape. […] All experiments were conducted at least in triplicate. Recovery of the skin, (i.e., regeneration of the barrier function of the SC) was studied using TEWL. These studies were carried out to look at the effect of the local concentration of FLU on the recovery/healing of the skin following removal of occlusion.

[5] = Solubility of FLU in the deposition formulations; type: physicochemical; conditions: in the four deposition formulations (ethanol, acetone, PG-ethanol, PG-ethanol-water)
Procedure: as §1

[6] = cited from earlier work
[7] = Pharmacokinetic studies of NTX after MN treatment with or without FLU; conditions: for AUC / Cmax / Tmax: hairless, guinea pig, plasma
[8] = humans; cited from earlier work
[9] = using MN, humans, no pore lifetime enhancer; cited from earlier work
[10] = daily/alternate day topical application; compared to 2-3 days without pore lifetime enhancement agent; cited from earlier work
[11] = established positive control treatment in HGP, 0.5% solution; cited from earlier work

Q: With CC(C)=O [Acetone, acetone] as the compound, how does the irritation [1] read?
A: The irritation was “caused irritation”.

Q: For CC(C)n1c(/C=C/C(O)CC(O)CC(=O)O)c(-c2ccc(F)cc2)c2ccccc21 (stereo not shown) [FLU, fluvastatin sodium], which “concentration of FLU in the skin” value ([2]; irrespective of the method of FLU deposition, 1.5% FLU, 40 μl) is on record?
A: The value was “no significant difference”.

Q: What about the “change in erythema (Δa*)” value [3] of the same compound?
A: Its value is “no significant differences”.

Q: What about the “recovery of the skin (TEWL enhancement ratio over baseline)” value [4] of the same compound?
A: The value was “no significant differences”.

Q: What about the solubility [5] of the same compound?
A: Its solubility is “not an issue”.

Q: And the “log P” value [6]?
A: Its value is 4.6.

Q: What about the pKa [6] of the same compound?
A: Its pKa is 4.27.

Q: And the “enhancement of drug delivery (window)” value ([7]; NTX delivery across MN-treated skin with addition of FLU)?
A: Its value is 7 days.

Q: What about the oral bioavailability [8] of the same compound?
A: The oral bioavailability was 9-50%.

Q: With O=C1CC[C@@]2(O)[C@H]3Cc4ccc(O)c5c4[C@@]2(CCN3CC2CC2)[C@H]1O5 [NTX, Naltrexone HCL] as the compound, how does the “flux across MN treated skin” value ([2]; NTX flux compared among the 5 treatment groups (4 FLU vehicles, NTX only control)) read?
A: Its value is “no significant difference”.

Q: And the “concentration of NTX in the skin” value ([2]; irrespective of the method of FLU deposition)?
A: The value was “no significant difference”.

Q: What about the “duration of delivery at therapeutic levels” value [9] of the same compound?
A: The value was 2 to 3 days.

Q: What about the plasma concentrations ([7]; NTX, FLU treatment group, throughout the range of the study (168 h)) of the same compound?
A: The plasma concentrations was “above 2 ng/mL”.

Q: And the “lag time with MN enhanced delivery” value ([7]; NTX, any of the three groups)?
A: Its value is “no lag time observed”.

Q: And the “time after treatment at which drug was quantified in plasma” value ([7]; NTX, patch system on MN treated skin)?
A: The value was ≤ 15 min.

Q: And the plasma concentrations ([7]; NTX, vehicle control (ethanol), beyond 144 h)?
A: Its plasma concentrations is “below 2 ng/mL”.

Q: What about the “time for which detectable levels of NTX were present in the plasma” value ([7]; all study groups, HGP) of the same compound?
A: The value was 72 h.

Q: What about the “NTX concentration in the plasma” value ([7]; ethanol treated group, at 7 days) of the same compound?
A: The value was < 2 ng/mL.

Q: And the AUC ([7]; topical or ocular, 200 μL NTX gel, NTX in plasma, HGP, MN control: MN + NTX gel)?
A: The AUC was 614 ± 213 ng·h/mL.

Q: And the Cmax ([7]; topical or ocular, 200 μL NTX gel, NTX in plasma, HGP, MN control: MN + 200 μL NTX gel, n=3)?
A: The Cmax was 39.4 ± 11.5 ng/mL.

Q: And the Tmax ([7]; topical or ocular, 200 μL NTX gel, Tmax, NTX in plasma, HGP, MN control: MN + NTX gel)?
A: The Tmax was 2.8 ± 2 h.

Q: And the AUC ([7]; topical or ocular, NTX in plasma, HGP, Treatment group: MN + NTX gel + FLU in ethanol)?
A: Its AUC is 1410 ± 1040 ng·h/mL.

Q: And the AUC ([7]; topical or ocular, NTX in plasma, HGP, Vehicle control: MN + NTX gel + ethanol)?
A: Its AUC is 1700 ± 1670 ng·h/mL.

Q: What about the Cmax ([7]; topical or ocular, NTX in plasma, HGP, Treatment group: MN + 300 μL NTX gel + 40 μL FLU in ethanol (200 proof), n=3) of the same compound?
A: The Cmax was 38.1 ± 19.7 ng/mL.

Q: What about the Cmax ([7]; topical or ocular, NTX in plasma, HGP, Vehicle control: MN + 300 μL NTX gel + 40 μL ethanol (200 proof), n=4) of the same compound?
A: The Cmax was 39.3 ± 19.2 ng/mL.

Q: What about the Tmax ([7]; topical or ocular, Tmax, NTX in plasma, HGP, Treatment group: MN + NTX gel + FLU in ethanol) of the same compound?
A: Its Tmax is 2.7 ± 3.8 h.

Q: What about the Tmax ([7]; topical or ocular, Tmax, NTX in plasma, HGP, Vehicle control: MN + NTX gel + ethanol) of the same compound?
A: The Tmax was 1.4 ± 1.7 h.

Q: What about the Tmax ([7]; topical, Tmax or time to maximum plasma concentration, NTX, all studies) of the same compound?
A: The Tmax was 0.25 to 4 h.

Q: What about the NTX levels ([7]; vehicle control group, until 144 hours) of the same compound?
A: The NTX levels was “above 2 ng/ml”.

Q: With O=C(O)Cc1ccccc1Nc1c(Cl)cccc1Cl [diclofenac, diclofenac sodium] as the compound, how does the “period of drug delivery following MN treatment” value [10] read?
A: Its value is 7 days.

Q: For CCCCCCCCCCCCOS(=O)(=O)[O-].[Na+] [sodium lauryl sulfate], which “Δa* value” [11] is on record?
A: The value was 12.3.
